Measured values published in patent US20120029187A1, “HALOALKYLSULFONANILIDE DERIVATIVE” (Nissan Chemical Industries, Ltd., priority 2009, published 2012).

Assays:
Assay type in all cases: in vivo
redroot pigweed [1] = assay: Test Example 4: herbicidal effect in foliage treatment; settings: dose 3.2 g/a
In short: (§1)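 Weeds and crops sown in sterilized diluvial soil under ~1.5 cm cover and grown in greenhouse at 25 to 30° C. At 14 days, water-diluted emulsifiable concentrate sprayed onto foliage at set doses (g/a); herbicidal effect scored on a rating scale three weeks after application.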

common ragweed [2] = assay: as above; settings: dose 3.2 g/a
In short: as §1

large crabgrass [3] = assay: as above; settings: dose 3.2 g/a
In short: as §1

giant foxtail [4] = assay: as above; settings: dose 3.2 g/a
In short: as §1

posumbu knotweed [5] = assay: as above; settings: dose 3.2 g/a
In short: as §1

common chickweed [6] = assay: as above; settings: dose 3.2 g/a
In short: as §1

water foxtail [7] = assay: as above; settings: dose 3.2 g/a
In short: as §1

wild oat [8] = assay: as above; settings: dose 3.2 g/a
In short: as §1

barnyardgrass [9] = assay: as above; settings: dose 3.2 g/a
In short: as §1

velvetleaf [10] = assay: as above; settings: dose 3.2 g/a
In short: as §1

Italian ryegrass [11] = assay: as above; settings: dose 3.2 g/a
In short: as §1

common lambsquater [12] = assay: as above; settings: dose 3.2 g/a
In short: as §1

beadstraw = assay: as above; settings: dose 3.2 g/a
In short: as §1

transplanted rice = assay: Test Example 1: preemergence treatment under submerged conditions, effect on crop; settings: dose 2.52 g/a
In short: (§2)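 Alluvial soil was flooded to 4 cm, sown with barnyardgrass, bulrush and ducksalad, and planted with 2.5-leaf rice seedlings. On the seeding day, water-diluted emulsifiable concentrates were applied to the water surface at set doses (g/a). After three weeks in a 25 to 30° C. greenhouse, mortality was scored 0–5.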

redroot pigweed [13] = assay: Test Example 3: herbicidal effects in soil treatment; settings: dose 3.2 g/a
In short: (§3)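 Seeds were sown in sterilized diluvial soil and covered with about 1.5 cm of soil. Compounds, formulated as emulsifiable concentrates and diluted with water, were sprayed evenly over the soil surface at set doses in g/a. Herbicidal effect was scored on a rating scale three weeks later.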

common ragweed [14] = assay: as above; settings: dose 3.2 g/a
In short: as §3

large crabgrass [15] = assay: as above; settings: dose 3.2 g/a
In short: as §3

giant foxtail [16] = assay: as above; settings: dose 3.2 g/a
In short: as §3

posumbu knotweed [17] = assay: as above; settings: dose 3.2 g/a
In short: as §3

common chickweed [18] = assay: as above; settings: dose 3.2 g/a
In short: as §3

water foxtail [19] = assay: as above; settings: dose 3.2 g/a
In short: as §3

wild oat [20] = assay: as above; settings: dose 3.2 g/a
In short: as §3

barnyardgrass [21] = assay: as above; settings: dose 3.2 g/a
In short: as §3

velvetleaf [22] = assay: as above; settings: dose 3.2 g/a
In short: as §3

Italian ryegrass [23] = assay: as above; settings: dose 3.2 g/a
In short: as §3

common lambsquater [24] = assay: as above; settings: dose 3.2 g/a
In short: as §3

ducksalad [25] = assay: Test Example 1: herbicidal effects in preemergence treatment under submerged conditions; settings: dose 2.52 g/a
In short: as §2

bulrush [26] = assay: as above; settings: dose 2.52 g/a
In short: as §2

barnyardgrass [27] = assay: as above; settings: dose 2.52 g/a
In short: as §2

ducksalad [28] = assay: Test Example 2: herbicidal effects during the vegetation period under submerged conditions; settings: treatment during the vegetation period under submerged conditions; dose 2.52 g/a
In short: (§4)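 Barnyardgrass, bulrush and ducksalad were co-sown in alluvial soil flooded to 4 cm and grown in a greenhouse at 25 to 30° C. At the 1- or 2-leaf stage, water-diluted emulsifiable concentrates went onto the water surface at set doses (g/a). Herbicidal effect was scored three weeks later on a graded scale.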

bulrush [29] = assay: as above; settings: treatment during the vegetation period under submerged conditions; dose 2.52 g/a
In short: as §4

barnyardgrass [30] = assay: as above; settings: treatment during the vegetation period under submerged conditions; dose 2.52 g/a
In short: as §4

[31] = three weeks after the application

## CCN1COCN(Cc2ccccc2NS(=O)(=O)C(F)(F)F)C1=O [IV-5]
Redroot pigweed [1]; [31]
  K: redroot pigweed, herbicidal effect: 0 (mortality of less than 5% (almost ineffective))
Common ragweed [2]; [31]
  J: common ragweed, herbicidal effect: 3 (mortality of at least 40% and less than 70%)
Large crabgrass [3]; [31]
  D: large crabgrass, herbicidal effect: 4 (mortality of at least 70% and less than 90%)
Giant foxtail [4]; [31]
  E: giant foxtail, herbicidal effect: 4 (mortality of at least 70% and less than 90%)
Posumbu knotweed [5]; [31]
  M: posumbu knotweed, herbicidal effect: 0 (mortality of less than 5% (almost ineffective))
Common chickweed [6]; [31]
  N: common chickweed, herbicidal effect: 4 (mortality of at least 70% and less than 90%)
Water foxtail [7]; [31]
  G: water foxtail, herbicidal effect: 5 (mortality of 90% or above (nearly complete death))
Wild oat [8]; [31]
  F: wild oat, herbicidal effect: 0 (mortality of less than 5% (almost ineffective))
Barnyardgrass [9]; [31]
  A: barnyardgrass, herbicidal effect: 5 (mortality of 90% or above (nearly complete death))
Velvetleaf [10]; [31]
  I: velvetleaf, herbicidal effect: 5 (mortality of 90% or above (nearly complete death))
Italian ryegrass [11]; [31]
  H: Italian ryegrass, herbicidal effect: 3 (mortality of at least 40% and less than 70%)
Common lambsquater [12]; [31]
  L: common lambsquater, herbicidal effect: 3 (mortality of at least 40% and less than 70%)
beadstraw; [31]
  O: beadstraw, herbicidal effect: 3 (mortality of at least 40% and less than 70%)
Transplanted rice
  a: transplanted rice, effect on crop (evaluation scale 0-5): 0 (mortality of less than 5% (almost ineffective))
Redroot pigweed [13]
  herbicidal effect, K: redroot pigweed: 3 (mortality of at least 40% and less than 70%)
Common ragweed [14]
  herbicidal effect, J: common ragweed: 0 (mortality of less than 5% (almost ineffective))
Large crabgrass [15]
  herbicidal effect, D: large crabgrass: 5 (mortality of 90% or above (nearly complete death))
Giant foxtail [16]
  herbicidal effect, E: giant foxtail: 5 (mortality of 90% or above (nearly complete death))
Posumbu knotweed [17]
  herbicidal effect, M: posumbu knotweed: 4 (mortality of at least 70% and less than 90%)
Common chickweed [18]
  herbicidal effect, N: common chickweed: 5 (mortality of 90% or above (nearly complete death))
Water foxtail [19]
  herbicidal effect, G: water foxtail: 5 (mortality of 90% or above (nearly complete death))
Wild oat [20]
  herbicidal effect, F: wild oat: 2 (mortality of at least 20% and less than 40%)
Barnyardgrass [21]
  herbicidal effect, A: barnyardgrass: 5 (mortality of 90% or above (nearly complete death))
Velvetleaf [22]
  herbicidal effect, I: velvetleaf: 5 (mortality of 90% or above (nearly complete death))
Italian ryegrass [23]
  herbicidal effect, H: Italian ryegrass: 4 (mortality of at least 70% and less than 90%)
Common lambsquater [24]
  herbicidal effect, L: common lambsquater: 3 (mortality of at least 40% and less than 70%)
Ducksalad [25]
  C: ducksalad, herbicidal effect (evaluation scale 0-5): 4 (mortality of at least 70% and less than 90%)
Bulrush [26]
  B: bulrush, herbicidal effect (evaluation scale 0-5): 5 (mortality of 90% or above (nearly complete death))
Barnyardgrass [27]
  A: barnyardgrass, herbicidal effect (evaluation scale 0-5): 5 (mortality of 90% or above (nearly complete death))
Ducksalad [28]
  C: ducksalad, herbicidal effect (evaluation scale 0-5): 5 (mortality of 90% or above (nearly complete death))
Bulrush [29]
  B: bulrush, herbicidal effect (evaluation scale 0-5): 5 (mortality of 90% or above (nearly complete death))
Barnyardgrass [30]
  A: barnyardgrass, herbicidal effect (evaluation scale 0-5): 5 (mortality of 90% or above (nearly complete death))

## CCCOC(=O)N(c1ccccc1CN1COC(c2ccccc2)CC1=O)S(=O)(=O)C(F)(F)F (stereo not shown) [II-11]
Redroot pigweed [1]; three weeks after application
  K: redroot pigweed, herbicidal effect: 0 (mortality of less than 5% (almost ineffective))
Common ragweed [2]; three weeks after application
  J: common ragweed, herbicidal effect: 4 (mortality of at least 70% and less than 90%)
Large crabgrass [3]; three weeks after application
  D: large crabgrass, herbicidal effect: 2 (mortality of at least 20% and less than 40%)
Giant foxtail [4]; three weeks after application
  E: giant foxtail, herbicidal effect: 2 (mortality of at least 20% and less than 40%)
Posumbu knotweed [5]; three weeks after application
  M: posumbu knotweed, herbicidal effect: 3 (mortality of at least 40% and less than 70%)
Common chickweed [6]; three weeks after application
  N: common chickweed, herbicidal effect: 4 (mortality of at least 70% and less than 90%)
Water foxtail [7]; three weeks after application
  G: water foxtail, herbicidal effect: 3 (mortality of at least 40% and less than 70%)
Wild oat [8]; three weeks after application
  F: wild oat, herbicidal effect: 0 (mortality of less than 5% (almost ineffective))
Barnyardgrass [9]; three weeks after application
  A: barnyardgrass, herbicidal effect: 4 (mortality of at least 70% and less than 90%)
Velvetleaf [10]; three weeks after application
  I: velvetleaf, herbicidal effect: 4 (mortality of at least 70% and less than 90%)
Italian ryegrass [11]; three weeks after application
  H: Italian ryegrass, herbicidal effect: 1 (mortality of at least 5% and less than 20%)
Common lambsquater [12]; three weeks after application
  L: common lambsquater, herbicidal effect: 2 (mortality of at least 20% and less than 40%)
beadstraw; three weeks after application
  O: beadstraw, herbicidal effect: 4 (mortality of at least 70% and less than 90%)
Transplanted rice
  a: transplanted rice, effect on crop (evaluation scale 0-5): 0 (mortality of less than 5% (almost ineffective))
Redroot pigweed [13]
  K: redroot pigweed, herbicidal effect (evaluation scale 0-5): 0 (mortality of less than 5% (almost ineffective))
Common ragweed [14]
  J: common ragweed, herbicidal effect (evaluation scale 0-5): 2 (mortality of at least 20% and less than 40%)
Large crabgrass [15]
  D: large crabgrass, herbicidal effect (evaluation scale 0-5): 3 (mortality of at least 40% and less than 70%)
Giant foxtail [16]
  E: giant foxtail, herbicidal effect (evaluation scale 0-5): 4 (mortality of at least 70% and less than 90%)
Posumbu knotweed [17]
  M: posumbu knotweed, herbicidal effect (evaluation scale 0-5): 0 (mortality of less than 5% (almost ineffective))
Common chickweed [18]
  N: common chickweed, herbicidal effect (evaluation scale 0-5): 3 (mortality of at least 40% and less than 70%)
Water foxtail [19]
  G: water foxtail, herbicidal effect (evaluation scale 0-5): 4 (mortality of at least 70% and less than 90%)
Wild oat [20]
  F: wild oat, herbicidal effect (evaluation scale 0-5): 0 (mortality of less than 5% (almost ineffective))
Barnyardgrass [21]
  A: barnyardgrass, herbicidal effect (evaluation scale 0-5): 3 (mortality of at least 40% and less than 70%)
Velvetleaf [22]
  I: velvetleaf, herbicidal effect (evaluation scale 0-5): 5 (mortality of 90% or above (nearly complete death))
Italian ryegrass [23]
  H: Italian ryegrass, herbicidal effect (evaluation scale 0-5): 3 (mortality of at least 40% and less than 70%)
Common lambsquater [24]
  L: common lambsquater, herbicidal effect (evaluation scale 0-5): 0 (mortality of less than 5% (almost ineffective))
Ducksalad [25]
  C: ducksalad, herbicidal effect (evaluation scale 0-5): 5 (mortality of 90% or above (nearly complete death))
Bulrush [26]
  B: bulrush, herbicidal effect (evaluation scale 0-5): 5 (mortality of 90% or above (nearly complete death))
Barnyardgrass [27]
  A: barnyardgrass, herbicidal effect (evaluation scale 0-5): 5 (mortality of 90% or above (nearly complete death))
Ducksalad [28]
  C: ducksalad, herbicidal effect (evaluation scale 0-5): 5 (mortality of 90% or above (nearly complete death))
Bulrush [29]
  B: bulrush, herbicidal effect (evaluation scale 0-5): 5 (mortality of 90% or above (nearly complete death))
Barnyardgrass [30]
  A: barnyardgrass, herbicidal effect (evaluation scale 0-5): 5 (mortality of 90% or above (nearly complete death))
